In turn, `COc1cc2c(cc1-c1nc3cc(Cl)ccc3o1)oc1ccccc12` showed a melting point of 191 to 193 °C. On to `O=Cc1c(Cl)ncnc1Cl`, for which the melting point was in the range of 65 to 66 °C. The molecule `O=c1c(-c2cccc(F)c2)coc2cc(O)c(O)cc12` returned a melting point of 277 °C. For the molecule `Cc1ccc(C(CC(=O)O)c2ccc(F)cc2)cc1` (centres undefined), the melting point lay in the range of 137 to 139 °C. `COc1cc([C@H]2CC[C@H](c3cc(OC)c(OC)c(OC)c3)S2)cc(OC)c1OC` (relative stereo) had a melting point of 133 to 134 °C. Consider `N#Cc1cnc2c(NC(=O)c3c(Cl)cccc3Cl)cccc2c1CO`, for which the melting point lay in the range of 249 to 250 °C.

Turning to `CS(=O)(=O)Nc1cccc(NC(=O)C(=O)N2CCC(Cc3ccccc3)CC2)c1`, the melting point fell in the range of 128 to 130 °C. Take `COC12CC(C)(C)C(O1)C(OC(=O)c1ccc(N)cc1)C=C2C` (centres undefined): the melting point lay within 118 to 119 °C. Molecule `Nc1ccc(C(=O)c2ccccc2)cc1C=O` returned a melting point of 125 °C. In turn, `COC(=O)C1=CC(=O)CC(c2ccc(Cl)cc2)N1` (centres undefined) yielded a melting point of 113 to 114 °C. Take `COc1n[nH]cc1-c1ccccc1`: the melting point was determined as 150 °C. Molecule `FC(F)(F)c1cccc(CO[C@H]2CO[C@@H](c3ccccc3)OC2)c1` yielded a melting point of 115 to 116 °C. The molecule `O=S1(=O)NCN(CCF)c2cc(F)c(F)cc21` yielded a melting point of 128 to 130 °C. With `O=C(CN1CCC(Oc2ccccc2)CC1)Nc1ccc2c(c1)OCC(=O)N2` the figure was 206 to 208 °C; with `CC(C)C1COCc2nc3c(N)nc4ccccc4c3n21` (centres undefined), 249 to 250 °C; with `CSc1nc(O)c(C(N)=O)c(O)n1`, over 360 °C.

Molecule `N#Cc1cc(-c2cc(C(F)F)c3cn[nH]c3n2)ccc1N` showed a melting point of 263 °C.

`CC(C)(C)CCNC(=O)c1coc(C2C3CCC(O3)C2Cc2ccccc2CCC(=O)O)n1` (centres undefined) returned a melting point of 160 to 162 °C.

With `Cc1cc(C)nc(NC(N)=Nc2ccc(Cl)cc2)n1`, the melting point was 203 °C. Consider `CCOc1ccc(C(=O)NC/C=C/c2ccccc2)cc1`, for which the melting point amounted to 132 °C. In turn, `O=C1CCC(c2ccc([N+](=O)[O-])cc2)CC1` gave a melting point of 160 to 162 °C. In turn, `CC1(C)c2ccc(C(F)CN3CCN(c4nsc5ccccc45)CC3)cc2C(C)(C)C1O` (centres undefined) gave a melting point of 49 to 54 °C. `CCc1nc2c(cnn2CC)c(NC2CCOCC2)c1CNC(=O)c1cccc(C(=O)NCc2cc(Cl)cc(-c3cccc(C=O)c3)c2)c1`: the melting point was 123 to 127 °C. `COc1ccc(C(=O)Nc2ccccc2)cc1NC(=S)Nc1cccc(C#N)c1` came in with a melting point of 183 to 185 °C. The molecule `O=C(O)COc1ccc(C(=C2SCCCS2)c2ccccc2)cc1` registered a melting point of 176 to 177 °C. Regarding `Cc1cc2c(cc1C13CC1CCC3=Cc1ccc(C(=O)O)cc1)C(C)(C)CCC2(C)C` (centres undefined), the melting point fell in the range of 274 to 275 °C.

`COc1cccc2c3c(c(=O)[nH]c12)CCCN3c1ccccc1C`: the melting point lay within 203 to 205 °C. Molecule `Cc1c(C)n2nnnc2c2nc(C)n(CCNS(C)(=O)=O)c12` came in with a melting point of over 250 °C. In turn, `COc1ccc2c(c1Cl)Sc1ccccc1N2C(C)=O` showed a melting point of 136 °C.

For `COc1ccc(CN2CCC(C(=O)O)(S(=O)(=O)c3ccc(OC)cc3)CC2)cc1`, the melting point was determined as 175 °C. In turn, `Cc1cccc2c1COC(=O)N2` displayed a melting point of 222 to 226 °C.

In turn, `COC(=O)c1cnnn1C1OC(COC(=O)c2ccccc2)C(OC(=O)c2ccccc2)C1OC(=O)c1ccccc1` (centres undefined) yielded a melting point of 86 to 88 °C.

In turn, `CC(C)C(=O)NS(=O)(=O)c1cccc([N+](=O)[O-])c1` came in with a melting point of 136 to 138 °C. In turn, `Cc1c(Cl)cc(N2CCN(CCCCN3C(=O)c4ccccc4S3(=O)=O)CC2)c2c1OCCO2` came in with a melting point of 136 to 137 °C. Turning to `COc1ccc2c(c1)N(CCCN1CCC(CCO)CC1)c1cccc(S(C)(=O)=O)c1S2`, the melting point lay within 117 to 118 °C. `CC(=O)Nc1nc2cc(-c3ccc(C=C4SC(=O)NC4=O)cn3)cc(C34CC5CC(CC(C5)C3)C4)c2o1` yielded a melting point of over 360 °C. `COc1cc2cn(-c3nccs3)nc2cc1OC`: the melting point was in the range of 184 to 187 °C. For `O=S(=O)(Nc1cccc(CCOCc2csc(-c3ccc(F)c(Cl)c3)n2)c1)C(F)(F)F`, the melting point lay within 141 to 143 °C.

In the case of `Cc1ncn2c1CN(C)C(=O)c1ccccc1-2`, the melting point was 184 to 186 °C. In the case of `O=C(NC(=O)c1c(O)cccc1F)Nc1ccc(Cl)cc1`, the melting point was found to be 215 °C. Molecule `CN(C)c1ccc(C2OC(C)(C)N=C2c2ccccc2)cc1` (centres undefined) registered a melting point of 123 °C. The molecule `Cc1ccc2c(c1)C=Cc1cc(C)ccc1C2c1cn(Cc2nc(C(=O)Nc3nc(CC(=O)O)cs3)cs2)c(=O)[nH]c1=S` registered a melting point of 200 to 205 °C. For `CC(Oc1ccc(F)cc1)C(=O)O` (centres undefined), the melting point lay in the range of 113 to 115 °C.

Consider `c1cncc(-c2ccnc3nccn23)c1`, for which the melting point lay in the range of 162 to 164 °C. `COC(=O)C1=C(C)NC(C)=C(C(=O)OCCN2CCN(C(c3ccc(F)cc3)c3ccc(F)cc3)CC2)C1c1cccc([N+](=O)[O-])c1` (centres undefined) came in with a melting point of 68 to 72 °C.

`CCOC(=O)Cc1cccc2c(-c3ccc(N)cc3)nccc12`: the melting point lay in the range of 129 to 132 °C.

Molecule `CSc1ccc(CC(=O)O)cc1Cl` had a melting point of 106 to 108 °C. For `CC(C)N(Cc1coc(-c2ncn3c2CN(C)C(=O)c2c(Cl)cccc2-3)n1)C(C)C` the value was 164 to 166 °C. As to `CC1(C)CC(=O)c2c(Sc3ncccn3)sc(-c3cc[nH]n3)c2C1`, the melting point is 245 °C. Molecule `O=C(O)c1ccc(/C=C\C(c2cc(Cl)c(Cl)c(Cl)c2)C(F)(F)F)cc1Br` (centres undefined) had a melting point of 54 to 64 °C. The molecule `O=C(O)CCCCCN1CCN2c3ccccc3Cc3ccccc3C2C1` (centres undefined) yielded a melting point of 181 to 182 °C. With `NC(=O)CC(O)COC(c1ccccc1)(c1ccccc1)c1ccccc1` (centres undefined) the figure was 59 to 60 °C; with `COc1ccc(C(=O)Nc2ccccc2)cc1NC(=S)Nc1ccccc1`, 174 to 176 °C.

For `CC1(C)OCC[C@@H]2[C@@H](NC(=O)OCc3ccccc3)C(=O)N21` (relative stereo), the melting point is 129 to 131 °C. The molecule `CCCCCC(=O)Nc1ccc2c(c1)c(Cc1ccc(C(=O)O)cc1OC)cn2CC(=O)O` had a melting point of 235 to 240 °C. Molecule `CCOP(=O)(CC=CC(=O)O)OCC` came in with a melting point of 73 to 75 °C.

On to `COc1cc(OC)c2sc(-c3ccc([N+](=O)[O-])cc3)nc2c1`, for which the melting point is 238 to 239 °C. For `CCCc1cc(OCC)c2c(c1OC)S(=O)(=O)N(CSc1nnnn1-c1ccccc1)C2=O` the value was 110 to 111 °C. On to `CCOC(=O)C[C@H]1CC[C@H](CNC(C)=O)CC1`, for which the melting point lay within 74 to 76 °C. `CCC1C=C2NC(=O)CC[C@]2(C)[C@H]2CC[C@]3(C)[C@@H]([C@H](C)CCCC(C)C)CC[C@H]3[C@H]12` (some centres undefined) gave a melting point of 147 to 149 °C.

Molecule `O=C1c2cc(F)cc(F)c2CC[C@@H]1NC(=O)C(F)(F)F` returned a melting point of 142 to 145 °C. `CC(C)NC(=O)c1ccc(-c2ccc3nnn(Cc4ccc5ncccc5c4)c3n2)cc1` yielded a melting point of 181 to 183 °C. With `COc1cc2c(=O)n(C(C)CN(C)C)c3c4cc5c(cc4ncc3c2cc1OC)OCO5` (centres undefined) the figure was 186 to 187 °C; with `C=C(F)C(F)(F)n1ncc(-c2ccc(S(N)(=O)=O)cc2)c(-c2ccc(F)cc2)c1=O`, 230 to 232 °C.

Molecule `[N-]=[N+]=Nc1ccc(Cl)cc1C(=NO)c1ccccc1` yielded a melting point of 125 to 132 °C. `CCOC(=O)c1cnc2c(c(C)nc3cc(C)nn32)c1NC` showed a melting point of 208 to 210 °C. With `CCSc1cnc(Cl)cc1C#N` the figure was 112 to 114 °C; with `O=C(OCC1CC1)c1ncn2c1[C@@H]1CCCN1C(=O)c1cc(F)ccc1-2`, 140 to 142 °C; with `COc1ccc(C2(O)CCC3(CC2)OCCO3)c2c1OCCO2`, 94 to 96 °C. As for `CON=C(C(C)=NN=Cc1ccccc1C(=NOC)C1=NOCCO1)c1ccccc1`, the melting point stood at 136 °C. As for `O=c1[nH]ccc2c1ccn2-c1ccc(C(F)(F)F)cc1Cl`, the melting point is 233 to 235 °C.

Take `CCOC(=O)C=C1CN=C(c2ccccc2Cl)c2cc(Cl)ccc2N1`: the melting point lay in the range of 103 to 105 °C.

With `CC(CCC(O)C(C)(C)O)C1CCC2C3CC=C4CC(O)CC(O)C4(C)C3CCC12C` (centres undefined), the melting point lay within 198 to 200 °C. Molecule `CCCOc1ccccc1-c1ccc(C(=O)O)c(=O)[nH]1` gave a melting point of 194 to 196 °C. Take `Cc1ccc(-n2nc(C(C)(C)C)cc2NC(=O)Nc2ccc(OCCCc3ccncc3)c3ccccc23)cc1`: the melting point lay within 205 to 207 °C. With `CCCCCN1C(=O)C2(COc3ccc(-c4cncnc4)cc32)c2ccccc21` (centres undefined) the figure was 115 to 117 °C. `CC(Cc1c[nH]c2ccccc12)NC(=O)C=C1CCC(c2cccc(F)c2)(N(C)C)CC1` (centres undefined): the melting point fell in the range of 163 to 166 °C. As for `OCc1ccc2c(ccn2-c2ccnc(N[C@H]3CC[C@H](O)CC3)n2)c1`, the melting point was 232 to 234 °C. In the case of `CCOC(=O)C1=C(C)Nc2nc(N)nc(N)c2C1c1cccnc1` (centres undefined), the melting point turned out to be 224 °C. `Cc1ccc2[nH]c(-c3ccc(S(N)(=O)=O)cc3)c(-c3ccccc3)c2c1`: the melting point lay within 242 to 244 °C. For `CCCCCOc1ccc2cc(CC[C@@](C)(N)COP(=O)(O)O)ccc2c1` the value was 266 to 267 °C. Molecule `CC(C)Nc1nc2cc(F)c(Cl)cc2n1[C@@H]1O[C@H](C)[C@@H](O)[C@H]1O` came in with a melting point of 97 to 99 °C.

`O=C1c2ccccc2C(=O)N1OCCCN1CCN(c2nsc3ccccc23)CC1` came in with a melting point of 143 to 144 °C. Regarding `COc1ccc(/C=C/c2ccncc2)cc1O`, the melting point is 196 to 199 °C.

The molecule `CCCCCc1c(C(C)C)nc(C(C)C)c(C(O)CCCC)c1-c1ccc(F)cc1` (centres undefined) came in with a melting point of 66 to 68 °C.

For the molecule `CC(C)(C)C(=O)c1oc(N)nc1C(C)(C)C`, the melting point was 248 to 250 °C.

As for `O=C1CCC(c2ccc(Cl)cc2)N1c1ccccc1` (centres undefined), the melting point was 82.5 to 83.5 °C. With `CCOc1ncnc(OC)c1NC(N)=S`, the melting point was in the range of 186 to 187 °C. For `CC1(O)CCC2C3CCC45OC4(C)C(=O)C(C#N)CC5(C)C3CCC21C` (centres undefined) the value was 166 to 167 °C.

By melting point is commonly meant the temperature, or range, at which the solid turns liquid.

Values taken from a melting point compilation (Tetko et al.; mined from patent text by program, amines drawn as free bases though some values may be those of a salt).
